Measured values taken from paper PMC7188713, “Phase 1 study of napabucasin, a cancer stemness inhibitor, in patients with advanced solid tumors” (Cancer Chemotherapy and Pharmacology, 2020).
Read-outs that look alike come from different tables or passages of the source. Marks after values point to notes of the source that are not given here.

Columns and labels:
advanced cancer = conditions: cited from earlier work
[1] = Plasma and urine pharmacokinetics of napabucasin in patients; type: in vivo, Japanese patients; conditions: for AUC(0-t) / AUC(0-inf) / Cmax / half-life / Tmax: human, oral; for AUC(0-t) / AUC(0-inf) / Cmax / half-life / Tmax / CL/F, range / CL/F, range (apparent total clearance at steady state): plasma; for AUC(0-inf): read-out: AUC0–∞, range; for Cmax: read-out: Cmax, range; for half-life: read-out: t1/2, range; for Tmax: read-out: tmax, range
Method: Blood samples for PK were obtained on Days 1, 2, 8, and 15 of Cycle 1 and Days 29 and 30 of Cycle 2. On Day 1 of Cycle 1 and Day 29 of Cycle 2, blood samples were collected before the morning dose and at 2, 4, 6, 8, 10, 12, and 24 h after the morning dose of napabucasin; for samples collected 24 h following the morning dose of napabucasin on Day 1 and Day 29, collection occurred before the morning dose was administered on Day 2 and Day 30, respectively. On Days 8 and 15 of Cycle 1, blood samples were taken 168 and 336 h after the morning dose on Day 1. Urine samples were taken on Days 1 and 2 of Cycle 1 and Days 29 and 30 of Cycle 2. Samples were collected immediately after the morning dose on Days 1 and 29 through to immediately before the morning dose the next day. Plasma napabucasin concentration was measured by Frontage Laboratories and CMIC Pharma Science Co., Ltd and urine napabucasin concentration was measured by CMIC Pharma Science Co., Ltd.
(§1) The safety and antitumor activity (intention-to-treat [ITT]) analysis populations included all patients that received at least one dose of napabucasin. The DLT analysis population included all patients that received at least one dose of napabucasin with at least 80% compliance ([number of capsules actually ingested/number of capsules that should have been ingested per dose […]] × 100) during the DLT evaluation period, and those patients who experienced DLT during the evaluation period regardless of compliance. The PK population included all patients that received at least one dose of napabucasin and had plasma napabucasin concentration data for at least one-time point after the first dose of napabucasin.

[2] = test system: phosphorylated STAT3 (pSTAT3); experiment: pSTAT3 IHC staining of tumor samples; type: in vivo, Japanese patients; conditions: one colorectal cancer patient
Method: (§2) Assessments of antitumor activity were objective tumor response, median progression-free survival (PFS) and median overall survival (OS). Tumor response was evaluated according to RECIST 1.1 [21]. Median PFS was defined as the time from the day of the first dose of napabucasin to the date of progressive disease (PD), if neither was observed, the patient was to be censored at the last assessment of tumor response. Median OS was defined as the time from the first dose of napabucasin to the date of death from any cause. Patients who were still alive at the final observation were to be censored at the date they were last known to be alive. STAT3 single nucleotide polymorphism (SNP) genotyping was carried out using DNA extracted from whole blood samples to assess tumor response, median PFS, and median OS. Immunohistochemistry (IHC), mutation analysis (Oncomine Comprehensive Assay), and microsatellite instability analyses were performed in tumor tissue samples obtained from patients who provided additional consent to assess the relationship between specific biomarkers and the antitumor activity of napabucasin. IHC staining of phosphorylated STAT3 (pSTAT3) was carried out on archived tumor samples which were collected pre-treatment, and de novo lesions during and post-treatment were also collected, according to the protocol of a recent Phase 3 study. Positive pSTAT3 staining was defined as cancer cell nuclear staining ≥ 5% plus a stroma staining score of at least 2. The biomarker testing facility was responsible for IHC staining and storage of tumor samples. If consent to a genetic test was withdrawn, samples and associated analyses were discarded.

prostate cancer cell = test system: prostate cancer cell; parameters: method as in PMID 26899963; conditions: in vitro; cited from earlier work
advanced solid tumors = experiment: Antitumor activity (RECIST 1.1 tumor response, PFS, OS, STAT3 SNP genotype); type: in vivo, Japanese patients
Method: as §2, §1

CSCs = test system: CSCs; parameters: method as in PMID 25605917; conditions: cited from earlier work
[3] = parameters: method as in doi:10.1200/JCO.2018.36.15_suppl.4110, doi:10.1200/JCO.2017.35.4_suppl.593; conditions: napabucasin 240 mg BID in combination with standard treatment; cited from earlier work
[4] = test system: NAD(P)H: quinone oxidoreductase-1; parameters: method as in PMID 31527169; conditions: results in redox cycling and ROS generation; cited from earlier work
[5] = 240 mg, Cycle 1 (Day 1), Cohort 1 (480 mg/day, 240 mg BID), n = 3
[6] = 240 mg, Cycle 2 (Day 29), Cohort 1 (480 mg/day, 240 mg BID), n = 3
[7] = 480 mg, Cycle 1 (Day 1), Cohort 2 (960 mg/day, 480 mg BID), n = 4
[8] = 480 mg, Cycle 2 (Day 29), Cohort 2 (960 mg/day, 480 mg BID), n = 3
[9] = 720 mg, Cycle 1 (Day 1), Cohort 3 (1440 mg/day, 720 mg BID), n = 7
[10] = 720 mg, Cycle 2 (Day 29), Cohort 3 (1440 mg/day, 720 mg BID), n = 5
[11] = Post-napabucasin: Day 26 from the first dose, treatment ongoing

## CC(=O)c1cc2c(o1)C(=O)c1ccccc1C2=O [napabucasin]
Advanced cancer; 14 cohorts, N = 41
  Dose up to which napabucasin was well tolerated: up to 2000 mg/day
Advanced cancer; Phase 1 dose-escalation study
  Patients with SD as the best response: 65%
[1]; 240 mg, Cycle 1 (Day 1), Cohort 1 (480 mg/day, 240 mg BID), n = 3, read-out: AUC0–12, range
  AUC(0-t): 1370 to 2990 ng·h/mL
[1]; 240 mg, Cycle 1 (Day 1), Cohort 1 (480 mg/day, 240 mg BID), n = 3, read-out: AUC0–24, range
  AUC(0-t): 2020 to 3800 ng·h/mL
[1]; [5]
  AUC(0-inf): 3650 to 4060 ng·h/mL
  Cmax: 194 to 468 ng/mL
  half-life: 5 to 25 h
  Tmax: 4 to 6 h
[1]; 240 mg, Cycle 2 (Day 29), Cohort 1 (480 mg/day, 240 mg BID), n = 3, read-out: AUC0–12, range
  AUC(0-t): 2190 to 4940 ng·h/mL
[1]; 240 mg, Cycle 2 (Day 29), Cohort 1 (480 mg/day, 240 mg BID), n = 3, read-out: AUC0–24, range
  AUC(0-t): 2510 to 6180 ng·h/mL
[1]; [6]
  AUC(0-inf): 2570 to 6370 ng·h/mL
  Cmax: 472 to 652 ng/mL
  half-life: 4 to 5 h
  Tmax: 4 to 10 h
[1]; 480 mg, Cycle 1 (Day 1), Cohort 2 (960 mg/day, 480 mg BID), n = 4, read-out: AUC0–12, range
  AUC(0-t): 984 to 4780 ng·h/mL
[1]; 480 mg, Cycle 1 (Day 1), Cohort 2 (960 mg/day, 480 mg BID), n = 4, read-out: AUC0–24, range
  AUC(0-t): 1200 to 6360 ng·h/mL
[1]; [7]
  AUC(0-inf): 1410 to 7360 ng·h/mL
  Cmax: 199 to 719 ng/mL
  half-life: 7 to 8 h
  Tmax: 2 to 6 h
[1]; 480 mg, Cycle 2 (Day 29), Cohort 2 (960 mg/day, 480 mg BID), n = 3, read-out: AUC0–12, range
  AUC(0-t): 2560 to 2760 ng·h/mL
[1]; 480 mg, Cycle 2 (Day 29), Cohort 2 (960 mg/day, 480 mg BID), n = 3, read-out: AUC0–24, range
  AUC(0-t): 2750 to 2880 ng·h/mL
[1]; [8]
  AUC(0-inf): 2750 to 2880 ng·h/mL
  Cmax: 391 to 477 ng/mL
  half-life: 2 to 3 h
  Tmax: 2 to 10 h
[1]; 720 mg, Cycle 1 (Day 1), Cohort 3 (1440 mg/day, 720 mg BID), n = 7, read-out: AUC0–12, range
  AUC(0-t): 3440 to 11000 ng·h/mL
[1]; 720 mg, Cycle 1 (Day 1), Cohort 3 (1440 mg/day, 720 mg BID), n = 7, read-out: AUC0–24, range
  AUC(0-t): 3920 to 14500 ng·h/mL
[1]; [9]
  AUC(0-inf): 3870 to 14800 ng·h/mL
  Cmax: 641 to 2070 ng/mL
  half-life: 3 to 12 h
  Tmax: 2 to 6 h
[1]; 720 mg, Cycle 2 (Day 29), Cohort 3 (1440 mg/day, 720 mg BID), n = 5, read-out: AUC0–12, range
  AUC(0-t): 3650 to 15400 ng·h/mL
[1]; 720 mg, Cycle 2 (Day 29), Cohort 3 (1440 mg/day, 720 mg BID), n = 5, read-out: AUC0–24, range
  AUC(0-t): 4480 to 20200 ng·h/mL
[1]; [10]
  AUC(0-inf): 4740 to 123000 ng·h/mL
  Cmax: 596 to 1930 ng/mL
  half-life: 5 to 192 h
  Tmax: 2 to 4 h
[1]; plasma, 480, 960, 1440 mg/day
  Difference in Cmax and AUC0–12 between doses: no clear difference between doses
[1]; Cycle 1 (Day 1), Cohort 1 (480 mg/day, 240 mg BID), n = 3
  CL/F, range: 59 to 66 L/h
[1]; Cycle 1 (Day 1), Cohort 2 (960 mg/day, 480 mg BID), n = 4
  CL/F, range: 65 to 341 L/h
[1]; Cycle 1 (Day 1), Cohort 3 (1440 mg/day, 720 mg BID), n = 7
  CL/F, range: 49 to 186 L/h
[1]; Cycle 2 (Day 29), Cohort 1 (480 mg/day, 240 mg BID), n = 3
  CL/F, range (apparent total clearance at steady state): 49–109^a L/h
[1]; Cycle 2 (Day 29), Cohort 2 (960 mg/day, 480 mg BID), n = 3
  CL/F, range (apparent total clearance at steady state): 174–188^a L/h
[1]; Cycle 2 (Day 29), Cohort 3 (1440 mg/day, 720 mg BID), n = 5
  CL/F, range (apparent total clearance at steady state): 47–197^a L/h
[1]; repeated BID dosing, Cycle 1 to Cycle 2
  Accumulation in plasma: no abnormal accumulation was observed
[1]; urine, 480, 960, 1440 mg/day
  Difference in urinary PK between cohorts: no clear differences were observed between cohorts
[2]; post-napabucasin (during treatment), positive = nuclear staining ≥ 5% plus stroma score at least 2
  pSTAT3 status: positive
[2]; [11]
  % Nuclear tumor positive (pSTAT3 IHC): 10%
  H-score (pSTAT3 IHC): 15
  Microenvironment % positive (pSTAT3 IHC): 50%
  Microenvironment intensity (pSTAT3 IHC): 2
  Percent nuclear tumor staining 0 (pSTAT3 IHC): 90%
  Percent nuclear tumor staining 1 + (pSTAT3 IHC): 5%
  Percent nuclear tumor staining 2 + (pSTAT3 IHC): 5%
  Percent nuclear tumor staining 3 + (pSTAT3 IHC): 0%
Prostate cancer cell
  Effect on prostate cancer cells: inhibited prostate cancer cell survival, motility, and tumorigenesis in vitro
Advanced solid tumors; Cohort 1 (480 mg/day)
  Median OS: 8.28 months
  Median PFS: 1.87 months
Advanced solid tumors; Cohort 2 (960 mg/day)
  Median OS: 5.03 months
  Median PFS: 1.76 months
Advanced solid tumors; Cohort 3 (1440 mg/day)
  Median OS: 5.68 months
  Median PFS: 1.45 months
Advanced solid tumors; DNA from whole blood, G/G, C/C, C/G genotypes
  Antitumor activity by STAT3 SNP genotype: no difference in antitumor activity between G/G, C/C, and C/G genotypes
Advanced solid tumors; ITT population
  Median OS: 5.83 months
  Median PFS: 1.71 months
Advanced solid tumors; RECIST 1.1, 14 patients
  Patients with progressive disease (PD): 12 patients
Advanced solid tumors; RECIST 1.1, 14 patients, both colorectal cancer
  Patients with stable disease (SD) as best overall tumor response: two
Advanced solid tumors; one patient in Cohort 1 (480 mg/day)
  Duration of SD: 56 days
Advanced solid tumors; one patient in Cohort 3 (1440 mg/day)
  Duration of SD: 82 days
Advanced solid tumors; this study
  Proportion of patients who achieved SD: 14%
CSCs
  Selectivity for CSCs: selectively targets CSCs, leaving normal hematopoietic stem cells unaffected
[3]
  DLTs: no DLTs
[4]
  Bioactivation: bioactivated by NAD(P)H: quinone oxidoreductase-1
